pIC50: −log10 of the molar value. “Also recorded” adds a separate entry of the source.
What was measured:
squalene synthase [1] = target: T1, squalene synthase (Bos taurus, UniProt Q32KR6); assay: Inhibition of squalene synthase activity in bovine brain microsomes; assay type: biochemical; settings: 0.05 mM [^3 H]FPP
T1 construct: squalene synthase activity present in bovine brain microsome fractions; from tissue; host or cells: bovine brain microsomes (crude)
T1 sequence (Q32KR6 1-417): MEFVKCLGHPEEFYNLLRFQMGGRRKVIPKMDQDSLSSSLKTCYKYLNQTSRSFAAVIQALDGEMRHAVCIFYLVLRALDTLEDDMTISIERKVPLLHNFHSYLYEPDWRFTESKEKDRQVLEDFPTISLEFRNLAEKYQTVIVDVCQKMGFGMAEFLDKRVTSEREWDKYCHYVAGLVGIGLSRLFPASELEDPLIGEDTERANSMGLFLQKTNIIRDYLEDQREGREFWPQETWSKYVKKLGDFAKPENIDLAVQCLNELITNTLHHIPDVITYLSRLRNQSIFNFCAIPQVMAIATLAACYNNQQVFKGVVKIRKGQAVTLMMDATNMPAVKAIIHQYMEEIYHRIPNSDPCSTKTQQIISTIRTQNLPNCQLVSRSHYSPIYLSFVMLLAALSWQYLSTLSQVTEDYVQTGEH
Protocol: FIG. 7. Inhibition of Squalene Synthase by AGPP. The initial rates of squalene synthase activity were determined from bovine brain microsomal preparations in the presence of the indicated concentration of unlabeled AGPP (filled squares) or unlabeled FPP (open triangles) under the in vitro conditions described in "Experimental Procedures." Crude bovine brain microsomes and 0.05 mM [^3 H]FPP (105 cpm/pmol) and unlabeled AGPP and FPP were added at the indicated concentrations and incubated for 30 min. at 37° C. The reactions were terminated with 40% (wt/vol) KOH and 95% ethanol. Authentic carrier squalene (20 μg) was added and the reactions extracted with petroleum ether. The amount of labeled lipid formed was measured by scintillation counting. […]
Assay for Squalene Synthase Activity--Initial rates of squalene synthase activity present in bovine brain microsome fractions were assayed as previously described (19) with minor modifications. […] The remaining sample was analyzed on Silica gel G 60 TLC plates by developing with hexane (33). […]
FIG. 7 depicts inhibition of Squalene Synthase by AGPP. The initial rates of squalene synthase activity were determined from bovine brain microsomal preparations in the presence of the indicated concentration of unlabeled AGPP (filled squares) or unlabeled FPP (open triangles) (77). […] The amount of labeled lipid formed was measured by scintillation counting.

FTase = FTase (Rattus norvegicus, UniProt Q02293+Q04631); assay: Continuous fluorescence assay: transfer of FPP and analogs to N-dansyl-GCVLS by FTase; assay type: biochemical; settings: excitation 340 nm, 505 nm
From the text: FIG. 8. Progress Curves for Transfer of FPP and Analog Pyrophosphates to Dansyl-GCVLS by FTase. The reaction is monitored for fluorescence intensity at 505 nm with excitation at 340 nm. (a) FPP, (b) AGPP, (c) 8-(pentafluoroaniline)geranyl pyrophosphate, (d) blank.
Continuous Fluorescence Assay for Analog Transfer: An important requirement for these studies is the development of a rapid technique for evaluating whether FPP analogs that are efficiently and appropriately transferred to target substrates by FTase. The analogs were evaluated for their ability to be transferred by FTase to the pentapeptide N-dansyl-GCVLS in a continuous fluorescence assay. (See references 78, 79, infra). There is a time dependent increase in the fluorescence of the dansyl group due to the local increase in hydrophobicity as the adjacent cysteine residue is isoprenylated. […] (FIG. 8).

squalene synthase [2] = target: T1, squalene synthase; assay: Conversion of [^3 H]AGPP to organic soluble products by squalene synthase; assay type: biochemical, bovine; settings: in vitro; listed as [^3 H]AGPP
Protocol: Assay for Squalene Synthase Activity--Initial rates of squalene synthase activity present in bovine brain microsome fractions were assayed as previously described (19) with minor modifications. […] […] Assay mixtures were incubated for 30 min at 37° C., and the reactions terminated by the addition of 50 μl of 40% (wt/vol) KOH and then 100 μl of 95% ethanol. The resulting mixtures were incubated at 60° C. for 2 h and then cooled to room temperature. Authentic carrier squalene (20 μg) was added to each reaction tube, which were then extracted three times with petroleum ether. The lipid extracts were pooled, washed with water three times, and evaporated under a stream of N2. The lipid residue was redissolved in 100 μl CHCl3 /CH3 OH (2:1 vol/vol) and an aliquot (30 μl) was taken to determine the amount of labeled lipid formed by scintillation spectrometry. The remaining sample was analyzed on Silica gel G 60 TLC plates by developing with hexane (33). In all analyses the squalene standard was located by anisaldehyde spray reagent (34), and radioactive zones were located with a Bioscan Imaging System 200-IBM.
Some of the previously characterized FTase inhibitors, particularly those competitive for FPP binding, have been described as inhibitors of squalene synthase, an enzyme that utilizes FPP and is an important secondary regulatory protein in the cholesterol biosynthetic pathway (38).

C/C(=C\COP(=O)(O)OP(=O)(O)O)CC/C=C(\C)CNc1ccccc1 [AGPP, (E,E)-8-Aniline-3,7-dimethyl-2,6-octadiene pyrophosphate]
inhibition of squalene synthase, in words (squalene synthase [1]): does not Inhibit Squalene Synthase Activity; also recorded: far less potent in vitro inhibitor of squalene synthase activity than FPP; also recorded: far less potent in vitro inhibitor of squalene synthase activity than for FTase | pIC50 (squalene synthase [1]; 37° C., 30 min): 3.00 | time-dependent increase in dansyl fluorescence / transfer to dansyl peptide, in words (FTase): transferred efficiently | time-dependent increase in dansyl fluorescence / transfer to dansyl peptide, in words (FTase; listed as 1): Time-dependent increases in the fluorescence of the dansyl group | conversion to organic soluble products (squalene synthase [2]): showed no activity; also recorded: failed to detect any conversion

— patent US6284910A, “Farnesyl pyrophosphate analogs” (University of Kentucky Research Foundation, priority 1999, dated 2001)
